Measured values published in US20240122180A1, “FUNGICIDAL HALOMETHYL KETONES AND HYDRATES AND THEIR MIXTURES” (FMC Corporation, priority 2020, published 2024).
Marks after values point to notes of the source that are not given here.

Key:
Assay type in all cases: in vivo
[1] = tested on: Blumeria graminis f. sp. tritici (the causal agent of wheat powdery mildew); assay: Test E: preventive spray on wheat seedlings, visual disease rating (100 = 100% control; * 50 ppm, ** 10 ppm, *** 250 ppm); details: 250 ppm test suspension, 100 = 100% disease control
Outline: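 Test suspension (3% acetone, acetone/water 50/50, 250 ppm PEG400) sprayed to run-off on wheat seedlings; inoculated next day with powdery mildew spore dust and kept 8 days at 20 °C. Visual rating, 100 = full and 0 = no control relative to untreated.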

[2] = tested on: Uncinula necator (the causal agent of grape powdery mildew); assay: Test C: preventive spray on grape seedlings, disease rating (100 = 100% control; * 50 ppm, ** 10 ppm, *** 250 ppm); details: 100 = 100% disease control
Source text: General protocol for preparing test suspensions for Tests A-E: the test compounds were first dissolved in acetone in an amount equal to 3% of the final volume and then suspended at the desired concentration (in ppm) in acetone and purified water (50/50 mix by volume) containing 250 ppm of the surfactant […] (polyhydric alcohol esters). The resulting test suspensions were then used in Tests A-E.
The test solution was sprayed to the point of run-off on grape seedlings. The following day the seedlings were inoculated with a spore suspension of Uncinula necator (the causal agent of grape powdery mildew) and incubated in a growth chamber at 20° C. for 12 days, after which time disease ratings were made.
Results for Tests A-E are given in Table A. In the Table, a rating of 100 indicates 100% disease control and a rating of 0 indicates no disease control (relative to the controls). An asterisk “*” or a double asterisk “**” or a triple asterisk “***” next to the rating value indicates a 50 ppm, 10 ppm and 250 ppm test suspension was used, respectively. A dash (-) indicates the compound was not tested.

[3] = tested on: Zymoseptoria tritici (the causal agent of wheat leaf blotch); assay: Test D: preventive spray on wheat seedlings, disease rating (100 = 100% control; * 50 ppm, ** 10 ppm, *** 250 ppm); details: 250 ppm test suspension, 100 = 100% disease control
Outline: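 Compounds first dissolved in acetone (3% of final volume), then suspended in 50/50 acetone/water with 250 ppm PEG400 and sprayed to run-off on wheat seedlings; Z. tritici spores inoculated next day. Incubated saturated at 24° C. 48 h, then 20° C. 17 days; disease control rated 0–100 versus controls.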

[4] = tested on: Phakopsora pachyrhizi (the causal agent of Asian soybean rust); assay: Test A: preventive spray on soybean seedlings, visual disease rating (100 = 100% control; * 50 ppm, ** 10 ppm, *** 250 ppm); details: 100 = 100% disease control
Outline: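 Soybean seedlings sprayed to run-off with compound suspended in acetone/water with 250 ppm PEG400 surfactant, inoculated next day with P. pachyrhizi spores. Kept 24 h saturated at 22 °C, then 8 days at 22 °C before visual rating of disease control (0-100) relative to controls.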

[5] = tested on: Puccinia recondita f. sp. tritici (the causal agent of wheat leaf rust); assay: Test B: preventive spray on wheat seedlings, disease rating (100 = 100% control; * 50 ppm, ** 10 ppm, *** 250 ppm); details: 100 = 100% disease control
Outline: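 Wheat seedlings sprayed to run-off with compound in acetone/water (50/50) containing 250 ppm PEG400, inoculated next day with Puccinia recondita f. sp. tritici spores. Held 24 h saturated at 20° C, then 6 days at 20° C; disease control rated 0–100 relative to controls.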

[6] = 250 ppm test suspension, 0 = no control
[7] = 10 ppm test suspension, 0 = no control
[8] = 50 ppm test suspension, 0 = no control
[9] = 250 ppm test suspension, grape seedlings
[10] = 10 ppm test suspension, soybean seedlings
[11] = 10 ppm test suspension, wheat seedlings
[12] = 50 ppm test suspension, grape seedlings
[13] = 250 ppm test suspension, soybean seedlings
[14] = 250 ppm test suspension, wheat seedlings

Row | Compound | Test E disease control rating ([1]; 0 = no control) | Test C disease control rating [2, 6] | Test D disease control rating ([3]; 0 = no control) | Test E disease control rating ([1]; wheat seedlings) | Test C disease control rating [2, 9] | Test D disease control rating ([3]; wheat seedlings) | Test A disease control rating [4, 10] [%] | Test B disease control rating [5, 11] [%] | also measured
1 | CCO/C(=C\Oc1cccc(Cn2cc(C(=O)NC(C)C)cn2)c1)C(F)(F)F [compound 415] | 0*** % | 9*** % | 0*** % |  |  |  |  |  | Test A disease control rating [4, 7]: 0%; Test B disease control rating [5, 7]: 0%
2 | CCO/C(=C\Oc1cccc(Cn2cc(C(=O)N(CC)CC)cn2)c1)C(F)(F)F [compound 404] | 0*** % | 44*** % | 11*** % |  |  |  |  |  | Test A disease control rating [4, 8]: 0%; Test B disease control rating [5, 8]: 0%
3 | CCOC(=O)c1cnn(Cc2ccc(C(O)CC(O)(O)C(F)(F)F)cc2)c1 (centres unmarked) [compound 51] |  |  |  | 0*** % | 81*** % | 3*** % | 0 | 0 | 
4 | CCOC(=O)c1cnn(Cc2c(F)c(F)c(OCC(O)(O)C(F)(F)F)c(F)c2F)c1 [Compound 465] | 91*** % | 73*** % | 59*** % |  |  |  |  |  | Test A disease control rating [4, 8]: 100%; Test B disease control rating [5, 8]: 100%
5 | CCO/C(=C\Oc1ccc(Cn2cc(C(=O)OCCOC)cn2)cc1)C(F)(F)F [compound 222] |  |  |  | 90*** % | 38*** % | 17*** % | 100 | 0 | 
6 | CCO/C(=C\Oc1ccc(Cn2cc(C(=O)OC)cn2)cc1)C(F)(F)F [compound 138] |  |  |  | 99*** % |  | 31*** % | 100 | 0 | Test C disease control rating [2, 12]: 100* %
7 | OC(O)(COc1ccc(Cn2cc(Br)cn2)cc1)C(F)(F)F [compound 322] | 97*** % | 48*** % | 100*** % |  |  |  |  |  | Test A disease control rating [4, 7]: 99%; Test B disease control rating [5, 7]: 86%
8 | CCO/C(=C\Oc1ccc(Cn2cc(Br)cn2)cc1)C(F)(F)F [compound 183] |  |  |  | 0*** % | 70*** % | 66*** % | 0 | 0 | 
9 | CCOC(=COc1ccc(C2CN(S(=O)(=O)CC)C2)cc1)C(F)(F)F [compound 383] | 0*** % | 74*** % | 0*** % |  |  |  |  |  | Test A disease control rating [4, 8]: 0%; Test B disease control rating [5, 8]: 0%
10 | CCOC(=O)c1cnn(Cc2ccc(O/C=C(\OCC)C(F)(F)F)c(C)c2)c1 [compound 410] | 13*** % | 88*** % | 11*** % |  |  |  |  |  | Test A disease control rating [4, 7]: 100%; Test B disease control rating [5, 7]: 0%
11 | C#CCOC(=O)c1cnn(Cc2ccc(O/C=C(\OCC)C(F)(F)F)cc2)c1 [compound 185] |  |  |  | 95*** % |  | 0*** % | 100 | 0 | Test C disease control rating [2, 12]: 100* %
12 | N#Cc1ccc(OCC2(C(F)(F)F)OCCO2)cc1 [compound 98] |  |  |  | 0% | 31% | 77% |  |  | Test A disease control rating [4, 13]: 100%; Test B disease control rating [5, 14]: 100%
13 | CC(=O)c1ccc(OCC(O)(O)C(F)(F)F)cc1 [compound 80] |  |  |  | 99*** % |  | 96*** % |  |  | Test C disease control rating [2, 12]: 0%; Test A disease control rating ([4]; 50 ppm test suspension, soybean seedlings): 99%; Test B disease control rating ([5]; 50 ppm test suspension, wheat seedlings): 100%
14 | CCOC(=COc1ccc(C2CN(C(C)=O)C2)cc1)C(F)(F)F [compound 373] | 98*** % | 56*** % | 99*** % |  |  |  |  |  | Test A disease control rating [4, 8]: 81%; Test B disease control rating [5, 8]: 0%
15 | CCO/C(=C\Oc1ccc(Cn2cc(C(=O)NC3CCCC3)cn2)cc1)C(F)(F)F [compound 428] | 0*** % | 43*** % | 2*** % |  |  |  |  |  | Test A disease control rating [4, 7]: 0%; Test B disease control rating [5, 7]: 0%
16 | CCO/C(=C\Oc1ccc(Cn2cc(C(=O)NCc3ncccn3)cn2)cc1)C(F)(F)F [compound 435] | 81*** % | 45*** % | 5*** % |  |  |  |  |  | Test A disease control rating [4, 8]: 96%; Test B disease control rating [5, 8]: 0%
17 | CCO/C(=C\Oc1ccc(Cc2ncc(C(=O)NCC3CC3)o2)cc1)C(F)(F)F [compound 258] | 53*** % | 64*** % | 13*** % |  |  |  |  |  | Test A disease control rating [4, 7]: 96%; Test B disease control rating [5, 7]: 0%
18 | CCO/C(=C\Oc1ccc(Cc2ncc(C(=O)NCC3CC3)s2)cc1)C(F)(F)F [compound 254] |  |  |  | 56*** % | 10*** % | 67*** % | 73 | 0 | 
19 | CCO/C(=C\Oc1ccc(Cc2ncc(C(=O)NCC(F)F)o2)cc1)C(F)(F)F [compound 255] |  |  |  | 64*** % | 93*** % | 60*** % | 89 | 0 | 
20 | O=C(NCC(F)(F)F)c1csc(Cc2ccc(OCC3(C(F)(F)F)OCCO3)cc2)n1 [compound 70] |  |  |  | 83% | 86% | 91% |  |  | Test A disease control rating [4, 13]: 100%; Test B disease control rating [5, 14]: 100%
21 | CCO/C(=C\Oc1ccc(Cn2cc(C(=O)OCC3CC3)cn2)cc1)C(F)(F)F [compound 220] |  |  |  | 92*** % | 85*** % | 28*** % | 100 | 0 | 
22 | C=CCOC(=O)c1cnn(Cc2ccc(O/C=C(\OCC)C(F)(F)F)cc2)c1 [compound 246] |  |  |  | 90*** % | 85*** % | 12*** % | 100 | 0 | 
